Reference: US5126368A, “Octenoic acid derivatives useful as thromboxane A2 inhibitors” (Imperial Chemical Industries plc, priority 1985, dated 1992)

Columns and labels:
rabbit aortal strip = test: Test (a): rabbit aortal strip model (Piper and Vane); format: cell-based; settings: agonist TXA2 or U46619
Protocol: (§1) As stated earlier, the compound of formula I is an antagonist of one or more of the actions of TXA2, for example certain of its actions on blood platelets, the vasculature and/or the lung.
(a) The rabbit aortal strip model devised by Piper and Vane (Nature, 1969, 223, 29-35) using as agonist a freshly prepared sample of TXA2, generated by addition of arachidonic acid (25 μg) to citrated, platelet rich rabbit plasma (250 μl) and allowing the mixture to aggregate fully over 90 seconds before use; alternatively the TXA2 mimetic agent known as U46619 (described by R.L. Jones et alia in "Chemistry, Biochemistry and Pharmacological Activity of Prostanoids" edited by S.M. Roberts and F. Scheinmann, at page 211; Pergamon Press, 1979) may be used as the agonist;

[1] = target: T1, human, citrated, platelet-rich plasma (Homo sapiens, UniProt P21731); test: Test (b): U46619-induced aggregation of human citrated platelet-rich plasma (Born); format: cell-based; settings: agonist U46619, averaged over several concentrations
T1 construct: aggregating human, citrated, platelet-rich plasma; endogenous in cells; host or cells: human platelets in citrated platelet-rich plasma
T1 sequence (P21731 1-343): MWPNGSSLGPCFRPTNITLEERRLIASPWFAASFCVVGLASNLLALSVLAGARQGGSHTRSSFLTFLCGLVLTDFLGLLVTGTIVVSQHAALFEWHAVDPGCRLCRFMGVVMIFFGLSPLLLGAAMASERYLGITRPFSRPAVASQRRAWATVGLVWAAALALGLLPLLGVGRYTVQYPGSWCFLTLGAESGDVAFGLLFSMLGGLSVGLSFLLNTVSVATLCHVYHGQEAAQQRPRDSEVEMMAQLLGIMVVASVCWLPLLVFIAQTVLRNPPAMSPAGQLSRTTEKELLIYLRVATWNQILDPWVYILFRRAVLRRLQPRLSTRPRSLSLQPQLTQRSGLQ
Excerpt: as §1
(b) a blood platelet aggregation test based on that described by Born (Nature, 1962, 194, 927-929) and involving:
(i) aggregating human, citrated, platelet-rich plasma by addition of the TXA2 mimetic agent U46619 so that a dose-response curve is generated;
(ii) generating a dose-response curve for U46619 stimulated platelet aggregation in the presence of increasing amounts of test compound (generally in the range 10^-5 M to 10^-10 M); and
(iii) calculating a KB value indicating potency of TXA2 antagonism for the test compound, averaged over several concentrations, from the calculated 50% response value for U46619 aggregation in the presence and absence of test compound; and […]

[2] = test system: U46619 induced bronchoconstriction; test: Test (c): U46619-induced bronchoconstriction, Konzett-Rossler anaesthetised guinea-pig model; format: in vivo; settings: 2 hours after oral dosing at 0.05 mg/kg, U46619 i.v.
Excerpt: (c) a bronchoconstriction test involving measuring the inhibition by a test compound of the bronchoconstriction induced in the Konzett-Rossler, anaesthetised guinea-pig model (as modified by Collier and James, Brit. J. Pharmacol., 1967, 30, 283-307) by intravenous administration of the TXA2 mimetic agent, U46619 and involving:
(i) obtaining a cumulative dose-response curve to U46619 induced bronchoconstriction by intravenous administration of constant volumes of increasing concentrations of U46619 (0.2-4 μg/kg) in physiological saline solution and expressing bronchoconstriction as the maximum of that theoretically obtainable with no air flow to the test animal;
(ii) generating a cumulative dose-response curve to U46619 induced bronchoconstriction at 30 minute intervals for 3 hours after oral dosing of test compound; and
(iii) calculating a dose-ratio for the test compound (that is the ratio of concentration of U46619 required to cause 50% bronchoconstriction in the presence and absence of test compound) indicating the potency of TXA2 antagonism.

[3] = test system: U46619 induced hypertension; test: Test (d): U46619-induced hypertension in anaesthetised rats; format: in vivo, rat (Alderley Park strain); settings: 1 hour after an oral dose of 5 mg/kg
Protocol: (d) Male rats (Alderley Park strain) are anaesthetised with sodium pentobarbital and blood pressure is monitored at the carotid artery. The TXA2 mimetic agent U46619 is administered intravenously at 5 μg/kg via the jugular vein to produce a 20-30 mm Hg ([…]) increase in systolic pressure. The procedure is repeated twice to establish reproducibility of the effect. A test compound is then administered either intravenously (via the jugular vein) or orally (via a cannula) directly into the stomach and the animal is challenged with U46619, five minutes after dosing with test compound and then successively every ten minutes until the hypertensive effect of U46619 is no longer blocked.

SMILES	pA2 (rabbit aortal strip)	Kb [1] [µM]	dose ratio [2]	inhibition of U46619 induced hypertension [3] [%]
O=C(O)CCC/C=C\C[C@@H]1CO[C@H](C(F)(F)F)O[C@@H]1c1ccccc1 (relative stereo) [5(Z)-7-([2,4,5-cis]-4-phenyl-2-trifluoromethyl-1,3-dioxan-5-yl)heptenoic acid, reference compound]	6.52±0.02			
O=C(O)CCCC/C=C\C[C@@H]1CO[C@H](C(F)(F)F)O[C@@H]1c1ccccc1O (relative stereo) [compound of formula I, 6(Z)-8-([2,4,5-cis]-4-o-hydroxyphenyl-2-trifluoromethyl-1,3-dioxan-5-yl)octenoic acid]	7.75±0.05	3.35	> 60	> 70
